From ChEMBL document CHEMBL5584351 come the findings set out here.

Broadly, the EC50 is the concentration needed to bring the measured effect to its halfway point. A high value points to a less potent agent. Broadly, the Emax is the size of the effect at its maximum, as opposed to the concentration needed.

Structures are written as SMILES. Active and inactive are the calls of the source. No cut-off for these calls is given here.

In data set [1] the target is T1, Oxysterols receptor LXR-beta (Homo sapiens, UniProt P55055).
T1 sequence (P55055 whole entry): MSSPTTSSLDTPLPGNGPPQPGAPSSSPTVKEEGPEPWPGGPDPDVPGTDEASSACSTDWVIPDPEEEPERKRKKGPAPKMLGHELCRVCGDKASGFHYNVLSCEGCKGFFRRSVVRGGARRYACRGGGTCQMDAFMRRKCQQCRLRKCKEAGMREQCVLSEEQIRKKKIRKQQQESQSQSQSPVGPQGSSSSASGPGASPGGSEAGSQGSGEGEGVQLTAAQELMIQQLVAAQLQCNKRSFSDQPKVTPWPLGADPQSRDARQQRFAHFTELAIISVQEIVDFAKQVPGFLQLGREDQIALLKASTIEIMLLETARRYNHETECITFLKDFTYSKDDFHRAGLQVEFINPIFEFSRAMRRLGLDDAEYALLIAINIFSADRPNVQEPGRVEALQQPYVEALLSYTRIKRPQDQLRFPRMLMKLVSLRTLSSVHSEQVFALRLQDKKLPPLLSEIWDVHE
The experiment in a line: Agonist activity at GST tagged LXRbeta (unknown origin) using SRC1 as coactivator peptide incubated for 1 hr by coactivator recruitment based TR-FRET assay. (In general: In TR-FRET formats the signal depends on donor and acceptor labels being close together.)

The target in data set [2] is T2, Oxysterols receptor LXR-alpha (Homo sapiens, UniProt Q13133).
T2 sequence (Q13133 whole entry): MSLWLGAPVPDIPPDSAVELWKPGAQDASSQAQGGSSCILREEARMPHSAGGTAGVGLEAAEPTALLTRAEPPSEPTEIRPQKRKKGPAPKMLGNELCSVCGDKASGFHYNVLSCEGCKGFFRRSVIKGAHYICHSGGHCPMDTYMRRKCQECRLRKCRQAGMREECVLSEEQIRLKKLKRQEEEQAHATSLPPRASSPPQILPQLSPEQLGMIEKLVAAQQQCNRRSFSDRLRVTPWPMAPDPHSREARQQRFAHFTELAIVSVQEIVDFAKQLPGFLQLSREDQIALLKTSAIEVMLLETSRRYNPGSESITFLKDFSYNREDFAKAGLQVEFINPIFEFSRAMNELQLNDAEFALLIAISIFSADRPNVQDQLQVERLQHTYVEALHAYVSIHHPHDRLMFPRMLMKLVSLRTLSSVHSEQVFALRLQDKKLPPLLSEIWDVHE
The experiment in a line: Agonist activity at GST tagged LXRalpha (unknown origin) using SRC1 as coactivator peptide incubated for 1 hr by coactivator recruitment based TR-FRET assay.

Data set [3] is described as follows: Toxicity in wild type C57BL/6 mouse assessed as change in ABCA1 protein expression in brain at 10 mg/kg,po administrated for 7 days by immunoblotting analysis. The data set is classed as organism-based. As to conditions: in vivo, 168 h, time 7 day. In general terms: A western blot detects proteins with antibodies after separation by electrophoresis.
The next data set relates to HepG2. The experiment in a line: Agonist activity at LXR in human HepG2 cells assessed as upregulation of SREBF1 mRNA expression at 10 uM incubated for 24 hrs by qPCR analysis. The data set is classed as cell-based. As to conditions: filed as agonist.
Data set [4] deals with Phospholipid-transporting ATPase ABCA1 (Mus musculus) (UniProt P41233). The experiment in a line: Activation of ABCA1 in mouse J774.2 cells assessed as increase in fluorescent-tagged cholesterol efflux at 1 uM incubated for 24 hrs by BODIPY based fluorescence analysis. It is filed as cell-based. As to conditions: filed as activator.
Sequence of Phospholipid-transporting ATPase ABCA1 (Mus musculus) (P41233 whole entry): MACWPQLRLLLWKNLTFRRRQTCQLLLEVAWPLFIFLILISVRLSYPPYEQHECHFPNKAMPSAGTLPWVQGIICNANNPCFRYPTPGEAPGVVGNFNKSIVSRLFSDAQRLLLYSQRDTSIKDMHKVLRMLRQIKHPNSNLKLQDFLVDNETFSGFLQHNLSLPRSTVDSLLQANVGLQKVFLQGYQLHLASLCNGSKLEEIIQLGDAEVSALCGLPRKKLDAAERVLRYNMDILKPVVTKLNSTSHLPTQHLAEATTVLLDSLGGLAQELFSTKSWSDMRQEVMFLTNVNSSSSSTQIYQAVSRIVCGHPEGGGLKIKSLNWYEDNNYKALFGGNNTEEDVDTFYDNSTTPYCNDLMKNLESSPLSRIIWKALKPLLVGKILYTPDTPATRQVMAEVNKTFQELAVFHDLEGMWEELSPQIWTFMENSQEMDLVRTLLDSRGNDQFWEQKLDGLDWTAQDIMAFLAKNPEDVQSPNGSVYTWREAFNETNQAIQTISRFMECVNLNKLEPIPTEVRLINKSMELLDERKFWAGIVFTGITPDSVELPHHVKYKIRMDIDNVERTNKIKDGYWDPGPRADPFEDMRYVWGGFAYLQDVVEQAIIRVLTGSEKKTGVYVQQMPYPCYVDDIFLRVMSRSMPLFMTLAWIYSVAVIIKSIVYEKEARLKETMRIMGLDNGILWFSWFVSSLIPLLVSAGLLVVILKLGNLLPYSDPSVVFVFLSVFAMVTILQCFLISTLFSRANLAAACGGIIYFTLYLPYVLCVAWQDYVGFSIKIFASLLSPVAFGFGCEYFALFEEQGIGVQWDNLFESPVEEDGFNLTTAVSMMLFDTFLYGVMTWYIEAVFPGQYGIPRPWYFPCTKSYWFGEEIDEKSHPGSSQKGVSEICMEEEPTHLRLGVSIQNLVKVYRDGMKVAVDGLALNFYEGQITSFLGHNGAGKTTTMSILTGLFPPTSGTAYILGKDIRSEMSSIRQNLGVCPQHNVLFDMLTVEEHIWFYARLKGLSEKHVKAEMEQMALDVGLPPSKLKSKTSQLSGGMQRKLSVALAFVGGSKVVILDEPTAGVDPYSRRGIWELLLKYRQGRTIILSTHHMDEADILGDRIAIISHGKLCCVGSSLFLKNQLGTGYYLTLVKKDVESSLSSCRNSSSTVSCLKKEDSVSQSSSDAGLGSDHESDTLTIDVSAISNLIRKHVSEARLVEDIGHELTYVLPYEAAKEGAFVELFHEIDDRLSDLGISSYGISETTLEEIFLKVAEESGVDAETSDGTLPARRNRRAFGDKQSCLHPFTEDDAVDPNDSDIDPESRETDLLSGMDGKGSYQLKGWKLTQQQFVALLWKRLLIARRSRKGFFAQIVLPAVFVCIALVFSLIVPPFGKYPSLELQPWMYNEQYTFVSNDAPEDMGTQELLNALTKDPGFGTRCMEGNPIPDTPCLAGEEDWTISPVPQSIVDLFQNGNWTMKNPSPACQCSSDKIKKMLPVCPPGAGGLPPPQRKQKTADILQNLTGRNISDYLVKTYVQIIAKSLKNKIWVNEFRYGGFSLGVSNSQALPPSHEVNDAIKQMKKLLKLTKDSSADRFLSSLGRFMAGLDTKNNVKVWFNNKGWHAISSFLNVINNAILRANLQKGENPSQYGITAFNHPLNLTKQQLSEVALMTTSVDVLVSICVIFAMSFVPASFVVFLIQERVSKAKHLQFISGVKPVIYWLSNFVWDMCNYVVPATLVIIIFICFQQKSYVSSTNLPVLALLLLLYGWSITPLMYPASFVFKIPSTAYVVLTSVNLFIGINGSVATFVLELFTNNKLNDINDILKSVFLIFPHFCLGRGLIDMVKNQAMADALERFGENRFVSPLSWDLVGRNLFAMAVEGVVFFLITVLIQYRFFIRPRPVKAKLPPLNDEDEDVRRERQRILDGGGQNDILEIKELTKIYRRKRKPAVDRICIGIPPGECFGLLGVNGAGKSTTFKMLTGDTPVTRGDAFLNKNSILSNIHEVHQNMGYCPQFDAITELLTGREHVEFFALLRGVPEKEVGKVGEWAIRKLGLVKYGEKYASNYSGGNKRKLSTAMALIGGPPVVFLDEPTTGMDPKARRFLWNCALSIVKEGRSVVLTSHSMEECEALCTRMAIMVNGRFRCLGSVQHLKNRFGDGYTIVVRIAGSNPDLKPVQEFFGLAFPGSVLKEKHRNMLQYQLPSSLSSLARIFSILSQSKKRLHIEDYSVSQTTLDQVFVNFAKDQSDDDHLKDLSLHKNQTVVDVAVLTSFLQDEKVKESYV
The target of data set [5] is T3, Bile acid receptor (Homo sapiens) (UniProt Q96RI1).
T3 sequence (whole entry): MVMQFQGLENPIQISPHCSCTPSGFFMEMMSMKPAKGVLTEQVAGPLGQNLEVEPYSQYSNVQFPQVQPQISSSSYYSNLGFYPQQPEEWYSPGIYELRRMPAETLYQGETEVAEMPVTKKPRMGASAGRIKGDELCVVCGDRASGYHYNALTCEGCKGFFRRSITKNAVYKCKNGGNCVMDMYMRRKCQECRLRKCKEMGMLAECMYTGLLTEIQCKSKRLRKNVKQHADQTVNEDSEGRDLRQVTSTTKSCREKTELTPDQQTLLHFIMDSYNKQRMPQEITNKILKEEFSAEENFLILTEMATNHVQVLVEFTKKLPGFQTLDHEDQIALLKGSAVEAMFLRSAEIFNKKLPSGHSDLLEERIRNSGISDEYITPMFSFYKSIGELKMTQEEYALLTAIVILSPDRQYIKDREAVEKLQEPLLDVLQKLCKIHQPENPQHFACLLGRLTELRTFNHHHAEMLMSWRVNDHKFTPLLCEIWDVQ
The experiment in a line: Agonist activity at FXR LBD (unknown origin) transfected in HEK293T cells by measuring maximal efficacy incubated for 16 hrs by Gal4-reporter gene based luciferase assay. It is filed as cell-based. On the technique in general: A reporter such as luciferase makes a cellular process visible.

The target of data set [6] is Phospholipid-transporting ATPase ABCA1 (Homo sapiens, UniProt O95477). Kind of data set: Activation of ABCA1 (unknown origin).
Sequence of Phospholipid-transporting ATPase ABCA1 (O95477 whole entry): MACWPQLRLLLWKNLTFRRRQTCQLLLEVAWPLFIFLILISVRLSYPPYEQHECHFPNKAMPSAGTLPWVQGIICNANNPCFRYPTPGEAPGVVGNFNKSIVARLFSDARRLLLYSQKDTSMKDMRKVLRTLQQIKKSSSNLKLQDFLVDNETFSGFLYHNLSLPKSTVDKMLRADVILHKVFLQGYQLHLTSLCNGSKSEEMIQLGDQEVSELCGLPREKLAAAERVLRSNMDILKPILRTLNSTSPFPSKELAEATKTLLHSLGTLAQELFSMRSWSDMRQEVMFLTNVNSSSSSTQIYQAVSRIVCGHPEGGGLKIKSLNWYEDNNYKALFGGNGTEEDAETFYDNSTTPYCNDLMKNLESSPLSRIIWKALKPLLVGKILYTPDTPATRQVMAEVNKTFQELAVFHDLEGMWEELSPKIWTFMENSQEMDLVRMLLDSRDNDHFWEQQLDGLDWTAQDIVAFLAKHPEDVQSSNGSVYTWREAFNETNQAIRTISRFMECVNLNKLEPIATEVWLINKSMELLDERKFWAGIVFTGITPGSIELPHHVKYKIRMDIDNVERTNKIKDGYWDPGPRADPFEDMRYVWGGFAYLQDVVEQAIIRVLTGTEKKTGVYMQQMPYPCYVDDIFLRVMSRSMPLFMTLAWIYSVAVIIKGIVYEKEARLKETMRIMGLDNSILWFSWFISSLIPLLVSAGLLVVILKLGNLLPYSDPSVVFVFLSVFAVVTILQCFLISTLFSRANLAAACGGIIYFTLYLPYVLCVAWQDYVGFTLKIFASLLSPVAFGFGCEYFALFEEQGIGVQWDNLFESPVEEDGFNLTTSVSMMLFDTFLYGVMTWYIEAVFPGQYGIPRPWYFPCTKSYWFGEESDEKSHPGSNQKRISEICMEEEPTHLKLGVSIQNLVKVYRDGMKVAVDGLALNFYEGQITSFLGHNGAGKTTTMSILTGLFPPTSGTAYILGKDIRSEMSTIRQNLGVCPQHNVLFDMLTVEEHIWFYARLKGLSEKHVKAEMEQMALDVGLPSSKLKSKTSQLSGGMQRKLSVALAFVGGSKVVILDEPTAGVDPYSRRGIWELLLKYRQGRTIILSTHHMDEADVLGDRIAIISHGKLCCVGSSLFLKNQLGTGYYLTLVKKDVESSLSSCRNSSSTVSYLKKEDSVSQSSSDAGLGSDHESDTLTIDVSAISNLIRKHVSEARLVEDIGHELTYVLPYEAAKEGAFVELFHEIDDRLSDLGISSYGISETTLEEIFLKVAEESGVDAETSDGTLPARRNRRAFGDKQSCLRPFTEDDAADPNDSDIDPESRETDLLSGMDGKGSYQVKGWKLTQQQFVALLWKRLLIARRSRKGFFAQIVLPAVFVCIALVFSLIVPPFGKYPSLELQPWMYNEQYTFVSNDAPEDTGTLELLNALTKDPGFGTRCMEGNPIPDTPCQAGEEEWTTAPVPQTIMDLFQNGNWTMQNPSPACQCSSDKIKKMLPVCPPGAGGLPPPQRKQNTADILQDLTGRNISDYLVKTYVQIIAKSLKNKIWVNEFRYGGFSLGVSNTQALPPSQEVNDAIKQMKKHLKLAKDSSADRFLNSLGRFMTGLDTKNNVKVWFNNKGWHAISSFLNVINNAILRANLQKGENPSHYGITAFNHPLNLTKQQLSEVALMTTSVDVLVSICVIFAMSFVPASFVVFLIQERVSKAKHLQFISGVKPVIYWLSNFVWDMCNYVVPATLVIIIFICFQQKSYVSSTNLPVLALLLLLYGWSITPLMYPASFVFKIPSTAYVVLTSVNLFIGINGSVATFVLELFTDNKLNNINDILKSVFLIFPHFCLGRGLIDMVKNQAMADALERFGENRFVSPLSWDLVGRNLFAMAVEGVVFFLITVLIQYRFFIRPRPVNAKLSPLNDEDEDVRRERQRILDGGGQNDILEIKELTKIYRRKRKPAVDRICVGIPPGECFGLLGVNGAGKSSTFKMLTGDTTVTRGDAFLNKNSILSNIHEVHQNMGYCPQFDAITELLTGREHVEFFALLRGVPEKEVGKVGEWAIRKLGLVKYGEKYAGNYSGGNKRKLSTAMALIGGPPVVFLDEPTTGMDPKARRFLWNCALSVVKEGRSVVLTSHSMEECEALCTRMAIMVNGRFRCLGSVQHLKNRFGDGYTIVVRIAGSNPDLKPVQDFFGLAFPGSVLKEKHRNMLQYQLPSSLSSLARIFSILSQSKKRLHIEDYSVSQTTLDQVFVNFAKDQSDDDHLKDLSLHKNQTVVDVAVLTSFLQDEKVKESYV

On to `CCOC(=O)c1cccc(NC(=O)c2sc(Cl)cc2S(=O)(=O)N(C)c2ccc(OCC)cc2)c1`, for which the EC50 came to 13 µM in data set [1] and 4.8 µM in data set [2]. For the compound `CCOC(=O)c1cccc(NC(=O)c2sc(Cl)cc2S(=O)(=O)N(C)c2ccc(N(C)C)cc2)c1`, the EC50 in data set [2] stood at 11 µM. In data set [1], `CCOc1ccc(N(C)S(=O)(=O)c2cc(Cl)sc2C(=O)Nc2cc(Cl)cc(C(=O)OCCOC)c2)cc1OC` returned an EC50 of 0.58 µM. On to `CCOc1ccc(N(C)S(=O)(=O)c2cc(Cl)sc2C(=O)Nc2cccc(C(=O)OCCOCCOC)c2)cc1OCC`, for which the concentration for a half-maximal effect (EC50) in data set [2] was above 25 µM. `CCOC(=O)c1cccc(-c2nnc(-c3sc(Cl)cc3S(=O)(=O)N(C)c3ccc(OCC)c(OC)c3)o2)c1` returned an EC50 in data set [2] above 25 µM. As for `CCOc1ccc(N(C)S(=O)(=O)c2cc(Cl)sc2C(=O)Nc2cccc(C(=O)OCCOC)c2)cc1OCC`, the EC50 in data set [1] is 15 µM.

In the case of `CCOc1ccc(N(C)S(=O)(=O)c2cc(Cl)sc2C(=O)Nc2cc(Cl)cc(C3OCCO3)c2)cc1OC`, the EC50 in data set [1] is 13 µM; in data set [2], 15 µM.

In data set [2], `CCOC(=O)c1cccc(NC(=O)c2sc(Cl)cc2S(=O)(=O)N(C)c2ccc(OCC)c(OC)c2)c1` came in with an EC50 of 0.95 µM. The same measure, in the same setting: as for `CCOc1ccc(N(C)S(=O)(=O)c2cc(Cl)sc2C(=O)Nc2cc(Cl)cc(C(=O)OCCOCCOC)c2)cc1OC`, the figure is 1 µM. On to `O=C(O)Cc1cccc(OCCCN(Cc2cccc(C(F)(F)F)c2Cl)CC(c2ccccc2)c2ccccc2)c1`, for which, in data set [3], the Activity result is recorded as “Toxic”. Take `O=S(=O)(c1ccccc1)N(CC(F)(F)F)c1ccc(C(O)(C(F)(F)F)C(F)(F)F)cc1`: the outcome (in the data set on HepG2; in data set [4]) was Active. This compound also yielded an Emax in data set [5] of 35%. As for `CN(CC(=O)Nc1ccc(F)c(F)c1F)C(=O)c1ccc2c(c1)OCCO2`, the EC50 in data set [6] was above 1 µM. Consider `CCOC(=O)c1cccc(NC(=O)c2sccc2S(=O)(=O)N(C)c2ccc(OCC)c(OCC)c2)c1`, for which the EC50 in data set [1] came out at 4.5 µM; in data set [2] it was 3.5 µM.

As to `CCOc1ccc(N(C)S(=O)(=O)c2ccsc2C(=O)Nc2cccc(C(=O)OC)c2)cc1`, in data set [1], the EC50 was above 25 µM. Same read-out and setting: next, `CCCOc1ccc(N(C)S(=O)(=O)c2ccsc2C(=O)Nc2cccc(C(=O)OCC)c2)cc1`: 11 µM.
